Experimental data reported in ChEMBL document CHEMBL1687752, “Impact of antifungal prophylaxis on colonization and azole susceptibility of Candida species” (2009).
Values after ≈ are worked out from the molar mass of the structure shown.

The compounds below were run on Nakaseomyces glabratus (assay: Antifungal activity against 31 days cultured Candida glabrata isolated from HSCT recipient with acute or chronic GVHD mouth receiving antifungal therapy for 31 days after 28 days of prophylaxis by broth microdilution method). Conditions: not given.
Format: functional
`CC[C@@H]([C@H](C)O)n1ncn(-c2ccc(N3CCN(c4ccc(OC[C@@H]5CO[C@@](Cn6cncn6)(c6ccc(F)cc6F)C5)cc4)CC3)cc2)c1=O` [POSACONAZOLE] showed an MIC of under 0.5 µg/mL.

Each compound was assayed on Nakaseomyces glabratus (assay: Antifungal activity against Candida glabrata isolated from HSCT recipients with acute or chronic GVHD prior to initiation of fluconazole therapy assessed as maximum MIC by broth microdilution method). Conditions: not given.
Format: functional
For `CC[C@@H]([C@H](C)O)n1ncn(-c2ccc(N3CCN(c4ccc(OC[C@@H]5CO[C@@](Cn6cncn6)(c6ccc(F)cc6F)C5)cc4)CC3)cc2)c1=O` [POSACONAZOLE], the MIC was 16 µg/mL.

Each compound was assayed on Nakaseomyces glabratus (assay: Antifungal activity against Candida glabrata isolated from neutropenic subjects with AML or MDS receiving posaconazole by broth microdilution method). Conditions: not given.
Format: functional
For `CC[C@@H]([C@H](C)O)n1ncn(-c2ccc(N3CCN(c4ccc(OC[C@@H]5CO[C@@](Cn6cncn6)(c6ccc(F)cc6F)C5)cc4)CC3)cc2)c1=O` [POSACONAZOLE], the MIC50 was 0.5 µg/mL (≈ 0.713 µM) and the MIC90 was 4 µg/mL (≈ 5.71 µM).

These compounds were tested on Nakaseomyces glabratus (assay: Antifungal activity against Candida glabrata isolated from neutropenic subject 1491 with AML or MDS pharynx receiving antifungal drug after 23 days prophylaxis by broth microdilution method). Conditions: 552 h.
Format: functional
`CC[C@@H]([C@H](C)O)n1ncn(-c2ccc(N3CCN(c4ccc(OC[C@@H]5CO[C@@](Cn6cncn6)(c6ccc(F)cc6F)C5)cc4)CC3)cc2)c1=O` [POSACONAZOLE] showed an MIC of 8 µg/mL (≈ 11.4 µM).

Each compound was assayed on Nakaseomyces glabratus (assay: Antifungal activity against Candida glabrata isolated from HSCT recipient 474 with acute or chronic GVHD mouth receiving antifungal drug after 124 days prophylaxis by broth microdilution method). Conditions: not given.
Format: functional
Compound `CC[C@@H]([C@H](C)O)n1ncn(-c2ccc(N3CCN(c4ccc(OC[C@@H]5CO[C@@](Cn6cncn6)(c6ccc(F)cc6F)C5)cc4)CC3)cc2)c1=O` [POSACONAZOLE] has an MIC of 4 µg/mL (≈ 5.71 µM).

What follows are compounds tested on Nakaseomyces glabratus (assay: Antifungal activity against Candida glabrata isolated from HSCT recipient 186 with acute or chronic GVHD mouth receiving antifungal drug after 112 days prophylaxis by broth microdilution method). Conditions: not given.
Format: functional
With `CC[C@@H]([C@H](C)O)n1ncn(-c2ccc(N3CCN(c4ccc(OC[C@@H]5CO[C@@](Cn6cncn6)(c6ccc(F)cc6F)C5)cc4)CC3)cc2)c1=O` [POSACONAZOLE] the MIC was 2 µg/mL (≈ 2.85 µM).

What follows are compounds tested on Nakaseomyces glabratus (assay: Antifungal activity against Candida glabrata isolated from neutropenic subject 1491 with AML or MDS pharynx after 23 days prophylaxis by broth microdilution method). Conditions: 552 h.
Format: functional
With `CC[C@@H]([C@H](C)O)n1ncn(-c2ccc(N3CCN(c4ccc(OC[C@@H]5CO[C@@](Cn6cncn6)(c6ccc(F)cc6F)C5)cc4)CC3)cc2)c1=O` [POSACONAZOLE] the MIC was 0.5 µg/mL (≈ 0.713 µM).

Each compound was assayed on Nakaseomyces glabratus (assay: Antifungal activity against Candida glabrata isolated from HSCT recipient 807 with acute or chronic GVHD mouth after 114 days prophylaxis by broth microdilution method). Conditions: not given.
Format: functional
Compound `CC[C@@H]([C@H](C)O)n1ncn(-c2ccc(N3CCN(c4ccc(OC[C@@H]5CO[C@@](Cn6cncn6)(c6ccc(F)cc6F)C5)cc4)CC3)cc2)c1=O` [POSACONAZOLE] has an MIC of 0.25 µg/mL (≈ 0.357 µM).

Each compound was assayed on Candida albicans (assay: Antifungal activity against Candida albicans isolated from HSCT recipients with acute or chronic GVHD receiving fluconazole assessed as maximum MIC by broth microdilution method). Conditions: not given.
Format: functional
Compound `CC[C@@H]([C@H](C)O)n1ncn(-c2ccc(N3CCN(c4ccc(OC[C@@H]5CO[C@@](Cn6cncn6)(c6ccc(F)cc6F)C5)cc4)CC3)cc2)c1=O` [POSACONAZOLE] has an MIC of 16 µg/mL.

What follows are compounds tested on Candida albicans (assay: Antifungal activity against Candida albicans isolated from HSCT recipient 042 with acute or chronic GVHD mouth receiving antifungal drug after 112 days prophylaxis by broth microdilution method). Conditions: not given.
Format: functional
In the case of `CC[C@@H]([C@H](C)O)n1ncn(-c2ccc(N3CCN(c4ccc(OC[C@@H]5CO[C@@](Cn6cncn6)(c6ccc(F)cc6F)C5)cc4)CC3)cc2)c1=O` [POSACONAZOLE], the MIC is reported as under 0.015 µg/mL.

These compounds were tested on Pichia kudriavzevii (assay: Antifungal activity against Candida krusei isolated from HSCT recipients with acute or chronic GVHD receiving fluconazole by broth microdilution method). Conditions: not given.
Format: functional
`CC[C@@H]([C@H](C)O)n1ncn(-c2ccc(N3CCN(c4ccc(OC[C@@H]5CO[C@@](Cn6cncn6)(c6ccc(F)cc6F)C5)cc4)CC3)cc2)c1=O` [POSACONAZOLE] gave an MIC50 of 0.25 µg/mL (≈ 0.357 µM) and an MIC90 of 0.5 µg/mL (≈ 0.713 µM).

The compounds below were run on Pichia kudriavzevii (assay: Antifungal activity against 6 days cultured Candida krusei isolated from neutropenic subject with AML or MDS pharynx receiving antifungal therapy for 19 days after 6 days of prophylaxis by broth microdilution method). Conditions: not given.
Format: functional
`CC[C@@H]([C@H](C)O)n1ncn(-c2ccc(N3CCN(c4ccc(OC[C@@H]5CO[C@@](Cn6cncn6)(c6ccc(F)cc6F)C5)cc4)CC3)cc2)c1=O` [POSACONAZOLE] was tested, and the MIC was 0.06 µg/mL (≈ 0.0856 µM).

What follows are compounds tested on Nakaseomyces glabratus (assay: Antifungal activity against Candida glabrata isolated from HSCT recipient 491 with acute or chronic GVHD mouth receiving antifungal drug after 112 days prophylaxis by broth microdilution method). Conditions: not given.
Format: functional
`CC[C@@H]([C@H](C)O)n1ncn(-c2ccc(N3CCN(c4ccc(OC[C@@H]5CO[C@@](Cn6cncn6)(c6ccc(F)cc6F)C5)cc4)CC3)cc2)c1=O` [POSACONAZOLE] showed an MIC of 2 µg/mL (≈ 2.85 µM).

What follows are compounds tested on Nakaseomyces glabratus (assay: Antifungal activity against Candida glabrata isolated from HSCT recipient 270 with acute or chronic GVHD mouth receiving antifungal drug after 108 days prophylaxis by broth microdilution method). Conditions: not given.
Format: functional
For `CC[C@@H]([C@H](C)O)n1ncn(-c2ccc(N3CCN(c4ccc(OC[C@@H]5CO[C@@](Cn6cncn6)(c6ccc(F)cc6F)C5)cc4)CC3)cc2)c1=O` [POSACONAZOLE], the MIC was 1 µg/mL (≈ 1.43 µM).

What follows are compounds tested on Nakaseomyces glabratus (assay: Antifungal activity against 7 days cultured Candida glabrata isolated from neutropenic subject with AML or MDS stool receiving antifungal therapy for 37 days after 9 days of prophylaxis by broth microdilution method). Conditions: not given.
Format: functional
`CC[C@@H]([C@H](C)O)n1ncn(-c2ccc(N3CCN(c4ccc(OC[C@@H]5CO[C@@](Cn6cncn6)(c6ccc(F)cc6F)C5)cc4)CC3)cc2)c1=O` [POSACONAZOLE] gave an MIC of 1 µg/mL (≈ 1.43 µM).

These compounds were tested on Candida albicans (assay: Antifungal activity against Candida albicans isolated from neutropenic subjects with AML or MDS receiving fluconazole by broth microdilution method). Conditions: not given.
Format: functional
For `CC[C@@H]([C@H](C)O)n1ncn(-c2ccc(N3CCN(c4ccc(OC[C@@H]5CO[C@@](Cn6cncn6)(c6ccc(F)cc6F)C5)cc4)CC3)cc2)c1=O` [POSACONAZOLE], the MIC50 was 0.015 µg/mL (≈ 0.0214 µM) and the MIC90 was 0.015 µg/mL (≈ 0.0214 µM).

The compounds below were run on Nakaseomyces glabratus (assay: Antifungal activity against 35 days cultured Candida glabrata isolated from HSCT recipient with acute or chronic GVHD mouth receiving antifungal therapy for 165 days after 138 days of prophylaxis by broth microdilution method). Conditions: not given.
Format: functional
Compound `CC[C@@H]([C@H](C)O)n1ncn(-c2ccc(N3CCN(c4ccc(OC[C@@H]5CO[C@@](Cn6cncn6)(c6ccc(F)cc6F)C5)cc4)CC3)cc2)c1=O` [POSACONAZOLE] has an MIC of 4 µg/mL (≈ 5.71 µM).

The compounds below were run on Nakaseomyces glabratus (assay: Antifungal activity against Candida glabrata isolated from HSCT recipient 975 with acute or chronic GVHD mouth receiving antifungal drug after 112 days prophylaxis by broth microdilution method). Conditions: not given.
Format: functional
For `CC[C@@H]([C@H](C)O)n1ncn(-c2ccc(N3CCN(c4ccc(OC[C@@H]5CO[C@@](Cn6cncn6)(c6ccc(F)cc6F)C5)cc4)CC3)cc2)c1=O` [POSACONAZOLE], the MIC was 4 µg/mL (≈ 5.71 µM).

The compounds below were run on Nakaseomyces glabratus (assay: Antifungal activity against Candida glabrata isolated from HSCT recipient 497 with acute or chronic GVHD mouth after 114 days prophylaxis by broth microdilution method). Conditions: not given.
Format: functional
`CC[C@@H]([C@H](C)O)n1ncn(-c2ccc(N3CCN(c4ccc(OC[C@@H]5CO[C@@](Cn6cncn6)(c6ccc(F)cc6F)C5)cc4)CC3)cc2)c1=O` [POSACONAZOLE] showed an MIC of 0.5 µg/mL (≈ 0.713 µM).

What follows are compounds tested on Nakaseomyces glabratus (assay: Antifungal activity against -2 days cultured Candida glabrata isolated from HSCT recipient with acute or chronic GVHD mouth receiving antifungal therapy for 168 days after 113 days of prophylaxis by broth microdilution method). Conditions: not given.
Format: functional
Compound `CC[C@@H]([C@H](C)O)n1ncn(-c2ccc(N3CCN(c4ccc(OC[C@@H]5CO[C@@](Cn6cncn6)(c6ccc(F)cc6F)C5)cc4)CC3)cc2)c1=O` [POSACONAZOLE] has an MIC of 1 µg/mL (≈ 1.43 µM).

These compounds were tested on Candida albicans (assay: Antifungal activity against Candida albicans isolated from HSCT recipient 462 with acute or chronic GVHD mouth receiving antifungal drug after 112 days prophylaxis by broth microdilution method). Conditions: not given.
Format: functional
With `CC[C@@H]([C@H](C)O)n1ncn(-c2ccc(N3CCN(c4ccc(OC[C@@H]5CO[C@@](Cn6cncn6)(c6ccc(F)cc6F)C5)cc4)CC3)cc2)c1=O` [POSACONAZOLE] the MIC was 0.06 µg/mL (≈ 0.0856 µM).
